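Five concentrations, 48 hours, 96-well plates. At the TGI there is no net growth.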
Assays:
Assay in all cases: NCI tumour cell line growth inhibition, 48 h
[1] = system: HL-60(TB) leukemia
[2] = system: MCF7 breast
[3] = system: CAKI-1 renal
[4] = system: MALME-3M melanoma
[5] = system: UACC-257 melanoma
[6] = system: NCI-H460 lung
[7] = system: HS 578T breast
[8] = system: SNB-75 CNS
[9] = system: LOX IMVI melanoma
[10] = system: OVCAR-8 ovarian
[11] = system: DLD-1 colon
[12] = system: DMS 273 small cell lung
[13] = system: XF 498 CNS
[14] = system: KM20L2 colon
[15] = system: OVCAR-5 ovarian
[16] = system: LXFL 529 NSCLC
[17] = system: DMS 114 small cell lung
[18] = system: NCI/ADR-RES ovarian
[19] = system: P388 leukemia
[20] = system: HCC-2998 colon

| Compound | TGI [1] [µM] | TGI [2] [µM] | TGI [3] [µM] | TGI [4] [µM] | TGI [5] [µM] | TGI [6] [µM] | TGI [7] [µM] | TGI [8] [µM] | TGI [9] [µM] | TGI [10] [µM] | TGI [11] [µM] | TGI [12] [µM] | TGI [13] [µM] | TGI [14] [µM] | TGI [15] [µM] | TGI [16] [µM] | TGI [17] [µM] | TGI [18] [µM] | TGI [19] [µM] | TGI [20] [µM] |
| --- | --- | --- | --- | --- | --- | --- | --- | --- | --- | --- | --- | --- | --- | --- | --- | --- | --- | --- | --- | --- |
| Cc1cc(S(N)(=O)=O)c(S/C(=N\Nc2ccc([N+](=O)[O-])cc2)c2ccc(Cl)cc2)cc1Cl | > 100 | 4.59 | 14.9 | 4.31 | 8.7 | 5.3 | > 100 | 4.01 | – | – | – | – | – | – | – | – | – | – | – | – |
| COc1cccc(NC(=O)N/C(=C/c2ccc(N(CCC#N)CCC#N)cc2)NC(=O)c2cc([N+](=O)[O-])ccc2Cl)c1 | – | – | > 100 | – | – | – | – | – | > 100 | > 100 | > 100 | > 100 | > 100 | > 100 | > 100 | > 100 | > 100 | – | – | – |
| O=S(=O)(O)c1ccc(N=Nc2ccc(N=Nc3ccc(/C=C/c4ccc(N=[N+]([O-])c5ccc(/C=C/c6ccc(N=Nc7ccc(N=Nc8ccc(S(=O)(=O)O)cc8)c8ccccc78)cc6S(=O)(=O)O)c(S(=O)(=O)O)c5)cc4S(=O)(=O)O)c(S(=O)(=O)O)c3)c3ccccc23)cc1 | > 100 | > 100 | – | > 100 | > 100 | > 100 | – | > 100 | > 100 | > 100 | > 100 | > 100 | > 100 | > 100 | > 100 | – | > 100 | > 100 | > 100 | > 100 |
